Converted amounts (≈) assume the structure as drawn.

For orientation: MIC means the least concentration at which growth counts as inhibited. Usually IC50 stands for the point on the concentration scale where inhibition reaches its midpoint.

Data set [1] concerns Mycobacterium tuberculosis. The data set is described as follows: Antimycobacterial activity against Mycobacterium tuberculosis. The format is functional.
For data set [2], the system named is Mycobacterium tuberculosis. As to the kind of experiment: Antimycobacterial activity against Mycobacterium tuberculosis H37Rv assessed as reduction in bacterial growth incubated for 5 days by MTT assay. The format is functional. Particulars: 120 h, time 5 day.
In another data set the test system is Aspergillus niger. The data set is described as follows: Antifungal activity against Aspergillus niger. Format: functional.
A further data set deals with Aspergillus flavus. As to the kind of experiment: Antifungal activity against Aspergillus flavus. Format: functional.
The next data set deals with Aspergillus fumigatus. The data set is described as follows: Antifungal activity against Aspergillus fumigatus. The format is functional.
Data set [3] can be described thus: Selectivity index, ratio of IC50 for cytotoxicity against human HEK293 cells to MIC for antimycobacterial activity against Mycobacterium tuberculosis H37Rv ATCC 27294. Format: toxicity, cell-based. Particulars: read-out: Selectivity Index.
In another data set the test system is Candida albicans. The data set is described as follows: Antifungal activity against Candida albicans. Format: functional.
The next data set deals with HEK293. The data set is described as follows: Cytotoxicity against HEK293 cells by MTT assay. Particulars: Homo sapiens. The format is cell-based.
The test system of data set [4] is Mycobacterium tuberculosis. The data set is described as follows: Antimycobacterial activity against Mycobacterium tuberculosis H37Rv ATCC 27294 assessed as reduction in bacterial growth by microplate alamar blue assay. The format is functional. (The colour change of resazurin is a common sign of viable cells or microbes.)

`O=C(N/N=C/c1cn(-c2ccc(Cl)cc2)nn1)c1ccncc1`: 0.62 µg/mL (≈ 1.9 µM) was the least that counted as inhibitory in data set [1] (MIC).
For `CCCCCCCCc1cn(CC(=O)OCC)nn1`, the MIC in data set [2] came to 0.5 µg/mL (≈ 1.87 µM).
On to `O=c1n(Cc2cn(Cc3cc4cc(Cl)ccc4nc3Cl)nn2)cnn1-c1ccccc1`, for which the MIC in the data set with Aspergillus niger was 0.2 µg/mL (≈ 0.442 µM); against Aspergillus flavus, 0.2 µg/mL (≈ 0.442 µM); with Aspergillus fumigatus, 3.12 µg/mL (≈ 6.9 µM); in the data set on Candida albicans it was 0.2 µg/mL (≈ 0.442 µM); in [4] it was 12.5 µg/mL (≈ 27.6 µM). For the same molecule, the selectivity ratio in [3] came to 36.7. The molecule further registered an IC50 with HEK293 of 459 µg/mL (≈ 1010 µM).
For `O=c1n(Cc2cn(Cc3cc4ccc(Cl)cc4nc3Cl)nn2)cnn1-c1ccccc1`, the MIC was 0.2 µg/mL (≈ 0.442 µM) with Aspergillus niger; 0.2 µg/mL (≈ 0.442 µM) in the data set with Aspergillus flavus; 3.12 µg/mL (≈ 6.9 µM) against Aspergillus fumigatus; 0.2 µg/mL (≈ 0.442 µM) in the data set on Candida albicans; 25 µg/mL (≈ 55.3 µM) in data set [4]. Also, the selectivity ratio in [3] turned out to be 34.8. The IC50 in the data set on HEK293 amounted to 869 µg/mL (≈ 1920 µM).
In the case of `COc1ccc2cc(Cn3cc(Cn4cnn(-c5ccccc5)c4=O)nn3)c(Cl)nc2c1`, the MIC was 0.2 µg/mL (≈ 0.447 µM) in the data set with Aspergillus niger; 0.2 µg/mL (≈ 0.447 µM) against Aspergillus flavus; 3.12 µg/mL (≈ 6.97 µM) with Aspergillus fumigatus; 0.2 µg/mL (≈ 0.447 µM) in the data set with Candida albicans; 1.6 µg/mL (≈ 3.57 µM) in data set [4]. Further, the selectivity ratio in data set [3] came to 630. This molecule also came in with an IC50 in the data set with HEK293 of 1010 µg/mL (≈ 2250 µM).
With `C[C@@H](N1CCN(c2ccc(-n3cnnn3)cc2)C1=O)[C@](O)(Cn1cncn1)c1ccc(F)cc1F`, in the data set on Aspergillus fumigatus, the MIC is 1 µg/mL (≈ 2.08 µM).
In the case of `COc1ccc(-n2ncn(Cc3cn(Cc4cc5cccc(C)c5nc4Cl)nn3)c2=O)cc1`, the MIC stood at 0.2 µg/mL (≈ 0.433 µM) in the data set with Aspergillus niger; 0.2 µg/mL (≈ 0.433 µM) against Aspergillus flavus; 3.12 µg/mL (≈ 6.75 µM) against Aspergillus fumigatus; 0.2 µg/mL (≈ 0.433 µM) in the data set on Candida albicans; 1.6 µg/mL (≈ 3.46 µM) in data set [4]. In addition, in data set [3], the selectivity ratio was found to be 366. In addition, it took 586 µg/mL (≈ 1270 µM) to reach half-maximal inhibition in the data set with HEK293 (IC50).
Regarding `COc1ccc(-n2ncn(Cc3cn(Cc4cc5cc(Cl)ccc5nc4Cl)nn3)c2=O)cc1`, the MIC in the data set with Aspergillus niger amounted to 0.2 µg/mL (≈ 0.415 µM); against Aspergillus flavus, 0.2 µg/mL (≈ 0.415 µM); against Aspergillus fumigatus, 3.12 µg/mL (≈ 6.47 µM); in the data set with Candida albicans it was 0.2 µg/mL (≈ 0.415 µM); in [4], 3.12 µg/mL (≈ 6.47 µM). For the same molecule, the selectivity ratio in data set [3] was 340. This molecule also returned an IC50 in the data set on HEK293 of 1060 µg/mL (≈ 2200 µM).
In the case of `Cc1cccc2cc(Cn3cc(Cn4cnn(-c5ccccc5)c4=O)nn3)c(Cl)nc12`, the MIC against Aspergillus niger turned out to be 0.2 µg/mL (≈ 0.463 µM); against Aspergillus flavus it was 0.2 µg/mL (≈ 0.463 µM); against Aspergillus fumigatus it was 3.12 µg/mL (≈ 7.22 µM); with Candida albicans it was 0.2 µg/mL (≈ 0.463 µM); in [4], 1.6 µg/mL (≈ 3.7 µM). In addition, in [3], the selectivity ratio stood at 234. This molecule yielded an IC50 with HEK293 of 729 µg/mL (≈ 1690 µM).
Regarding `O=c1n(Cc2cn(Cc3cc4ccccc4nc3Cl)nn2)cnn1-c1ccccc1`, the minimum inhibitory concentration (MIC) against Aspergillus niger turned out to be 0.2 µg/mL (≈ 0.479 µM); in the data set on Aspergillus flavus it was 0.2 µg/mL (≈ 0.479 µM); in the data set on Aspergillus fumigatus, 3.12 µg/mL (≈ 7.47 µM); in the data set on Candida albicans, 0.2 µg/mL (≈ 0.479 µM); in data set [4] it was 25 µg/mL (≈ 59.8 µM). In data set [3], the selectivity ratio turned out to be 26.2. In the data set on HEK293, this molecule showed an IC50 of 655 µg/mL (≈ 1570 µM).
In the case of `COc1ccc(-n2ncn(Cc3cn(Cc4cc5ccc(Cl)cc5nc4Cl)nn3)c2=O)cc1`, the minimal inhibitory concentration (MIC) against Aspergillus niger was 0.2 µg/mL (≈ 0.415 µM); with Aspergillus flavus it was 0.2 µg/mL (≈ 0.415 µM); with Aspergillus fumigatus it was 3.12 µg/mL (≈ 6.47 µM); in the data set with Candida albicans it was 0.2 µg/mL (≈ 0.415 µM); in data set [4], 3.12 µg/mL (≈ 6.47 µM). The selectivity ratio in data set [3] turned out to be 470. The IC50 in the data set on HEK293 is 1460 µg/mL (≈ 3040 µM).
On to `COc1ccc(-n2ncn(Cc3cn(Cc4cc5cc(C)ccc5nc4Cl)nn3)c2=O)cc1`, for which the minimal inhibitory concentration (MIC) was 0.2 µg/mL (≈ 0.433 µM) with Aspergillus niger; 0.2 µg/mL (≈ 0.433 µM) against Aspergillus flavus; 3.12 µg/mL (≈ 6.75 µM) against Aspergillus fumigatus; 0.2 µg/mL (≈ 0.433 µM) against Candida albicans; 1.6 µg/mL (≈ 3.46 µM) in data set [4]. In addition, the selectivity ratio in data set [3] was 384. In the data set on HEK293, this molecule gave an IC50 of 615 µg/mL (≈ 1330 µM).
In the case of `COc1ccc(-n2ncn(Cc3cn(Cc4cc5ccccc5nc4Cl)nn3)c2=O)cc1`, the minimal inhibitory concentration (MIC) in the data set on Aspergillus niger was determined as 0.2 µg/mL (≈ 0.447 µM); against Aspergillus flavus it was 0.2 µg/mL (≈ 0.447 µM); in the data set on Aspergillus fumigatus it was 3.12 µg/mL (≈ 6.97 µM); against Candida albicans it was 0.2 µg/mL (≈ 0.447 µM); in [4] it was 12.5 µg/mL (≈ 27.9 µM). Moreover, in data set [3], the selectivity ratio came to 76.7. The molecule also showed a half-maximal inhibitory concentration (IC50) in the data set with HEK293 of 958 µg/mL (≈ 2140 µM).
In the case of `Cc1ccc2nc(Cl)c(Cn3cc(Cn4cnn(-c5ccccc5)c4=O)nn3)cc2c1`, the minimum inhibitory concentration (MIC) in the data set on Aspergillus niger was determined as 0.2 µg/mL (≈ 0.463 µM); in the data set with Aspergillus flavus, 0.2 µg/mL (≈ 0.463 µM); against Aspergillus fumigatus it was 3.12 µg/mL (≈ 7.22 µM); against Candida albicans it was 0.2 µg/mL (≈ 0.463 µM); in [4] it was 3.12 µg/mL (≈ 7.22 µM). For the same molecule, the selectivity ratio in data set [3] turned out to be 153. In the data set with HEK293, half-maximal inhibition (IC50) required 478 µg/mL (≈ 1110 µM).
For the molecule `COc1ccc(-n2ncn(Cc3cn(Cc4cc5cc(Br)ccc5nc4Cl)nn3)c2=O)cc1`, the minimal inhibitory concentration (MIC) in the data set on Aspergillus niger stood at 0.2 µg/mL (≈ 0.38 µM); against Aspergillus flavus it was 0.2 µg/mL (≈ 0.38 µM); with Aspergillus fumigatus it was 3.12 µg/mL (≈ 5.92 µM); with Candida albicans, 0.2 µg/mL (≈ 0.38 µM); in data set [4], 6.25 µg/mL (≈ 11.9 µM). Also, in data set [3], the selectivity ratio was 53.2. Further, the midpoint of inhibition with HEK293, the IC50, lay at 333 µg/mL (≈ 632 µM).
In the case of `O=c1n(Cc2cn(Cc3cc4cc(Br)ccc4nc3Cl)nn2)cnn1-c1ccccc1`, the minimal inhibitory concentration (MIC) against Aspergillus niger was found to be 0.2 µg/mL (≈ 0.403 µM); against Aspergillus flavus, 0.2 µg/mL (≈ 0.403 µM); in the data set with Aspergillus fumigatus it was 3.12 µg/mL (≈ 6.28 µM); against Candida albicans it was 0.2 µg/mL (≈ 0.403 µM); in [4] it was 25 µg/mL (≈ 50.3 µM). In addition, in [3], the selectivity ratio turned out to be 66.1. The molecule also registered a concentration for half-maximal inhibition (IC50) in the data set with HEK293 of 1650 µg/mL (≈ 3330 µM).
Regarding `O=C(O)c1cn(C2CC2)c2cc(N3CCNCC3)c(F)cc2c1=O` [CIPROFLOXACIN], the MIC in data set [4] is 3.12 µg/mL (≈ 9.42 µM).
Regarding `OC(Cn1cncn1)(Cn1cncn1)c1ccc(F)cc1F` [FLUCONAZOLE], the MIC against Aspergillus niger, in the data set on Aspergillus flavus and in the data set with Candida albicans was 25 µg/mL (≈ 81.6 µM) in each case.
In the case of `NNC(=O)c1ccncc1` [ISONIAZID], the minimal inhibitory concentration (MIC) in [4] stood at 1.6 µg/mL (≈ 11.7 µM).
On the same count and under the same terms, under `NC(=O)c1cnccn1` [PYRAZINAMIDE] stands 6.25 µg/mL (≈ 50.8 µM).

The record behind these values is ChEMBL document CHEMBL4814024, “Microwave assisted regioselective synthesis of quinoline appended triazoles as potent anti-tubercular and antifungal agents via copper (I) catalyzed cycloaddition” (Bioorg Med Chem Lett, 2021).
